In patent US20260297042A1, “BIARYLAMIDE DERIVATIVES AND THEIR USE AS PKMYT1 INHIBITORS” (CANCER RESEARCH TECHNOLOGY LIMITED, priority 2023, published 2026):

Assays:
WEE1 = target: T1, WEE1 (Homo sapiens, UniProt P30291); assay: Selectivity versus WEE1 assay (ADP-Glo enzymatic assay); type: biochemical; conditions: for IC50: ADP-Glo; for PKMYT1 vs. WEE1 selectivity: fold difference in selectivity for PKMYT1 over WEE1
T1 construct: purchased Thermo Fisher PR7373A
Protocol: Selectivity versus WEE1 assay: Selectivity was established using the same format as outlined for PKMYT1. After dosing of compounds via the Echo acoustic dispenser—as described above—WEE1 (Thermo Fisher PR7373A) was added to each well at a final concentration of 15 nM in a buffer of 50 mM HEPES (pH 7.5), 10 mM MgCl2, 1 mM EGTA, 0.01% Brij-35, 1% DMSO. 30 µM ATP was added to start the reaction with the final assay volume being 4 μl. The plate was then incubated for 60 minutes at 26° C. before the addition of 4 μl of ADP-Glo Reagent. Following a further 60 minute incubation the assay signal was developed by the addition of 8 μl ADP-Glo Detection Reagent. After 60 minutes the luminescence signal was read on a PHERAStar FS microplate reader (BMG Labtech).
(§1) Data analysis: Data was captured and analysed within the Dotmatics Studies software module where dose response curves were generated and IC50 values determined. Acceptance and verification of data followed strict in-house business rules which are summarised as follows. […] Technical and biological replicates of each compound are routinely tested and replicate IC50 values must fall within 3-fold of each other with dose response curves showing ‘goodness of fit’ r2 values >0.9. Failure to meet any of these defined criteria result in rejection of data.

Human PKMYT1 = target: T2, Human PKMYT1 (Homo sapiens, UniProt Q99640); assay: PKMYT1 biochemical ADP-Glo enzymatic assay; conditions: ADP-Glo
T2 construct: Human PKMYT1 75-362 was cloned as a TEV cleavable 6xHis fusion; 6xHis (TEV cleavable) (cleaved yes); made in house; host or cells: bacterial cells
T2 sequence (Q99640 75-362): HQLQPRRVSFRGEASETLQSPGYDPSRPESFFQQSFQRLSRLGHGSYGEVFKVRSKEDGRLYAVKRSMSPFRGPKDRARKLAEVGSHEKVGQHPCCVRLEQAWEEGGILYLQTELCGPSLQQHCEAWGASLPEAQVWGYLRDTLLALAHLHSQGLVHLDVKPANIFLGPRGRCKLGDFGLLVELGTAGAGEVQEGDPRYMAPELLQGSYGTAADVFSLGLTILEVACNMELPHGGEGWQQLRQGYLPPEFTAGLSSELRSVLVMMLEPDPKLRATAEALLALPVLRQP
Protocol: Human PKMYT1 75-362 was cloned as a TEV cleavable 6xHis fusion in bacterial cells. After purification on a Ni++HiTrap Chelating HP column, the His-tag was cleaved using TEV protease. Cleaved PKMYT1 was further purified on a Superdex 200 16/600 sizing column. The fractions containing PKMYT1 were pooled and concentrated using an ultrafiltration centrifugal protein concentrator. The purified protein was aliquoted, flash frozen in liquid nitrogen, and stored at −80° C.
PKMYT1 biochemical assay: Inhibition of PKMYT1 was assessed using the ADP-Glo™ Max Detection System from Promega. This assay detects the production of ADP from ATP by PKMYT1 via a two-step process ultimately involving the conversion of ADP to ATP with the latter converted to light in a coupled reaction with luciferase/luciferin. Inhibition of PKMYT1 by small molecule inhibitors results in a retardation of luminescence above background. The intrinsic ATPase activity of PKMYT1 was assessed according to the following protocol. Compounds were dosed into Corning white low volume 384 well assay plates using an Echo acoustic dispenser to generate 10-point curves spanning a 3-fold dilution series. DMSO (no inhibitor) control wells were prepared to benchmark the maximum and minimum signals in the presence and absence of PKMYT1, respectively. The PKMYT1 kinase domain was purified in-house, as described above, and added to the wells at a final concentration of 15 nM in a buffer of 50 mM HEPES (pH 7.5), 10 mM MgCl2, 1 mM EGTA, 0.01% Brij-35, 1% DMSO. 500 µM ATP was added to start the reaction with the final assay volume being 4 μl. The plate was then incubated for 60 minutes at 26° C. before the addition of 4 μl of ADP-Glo Reagent to stop the reaction and deplete the unconsumed ATP. Following a further 60 minute incubation the assay signal was developed by the addition of 8 μl ADP-Glo Max Detection Reagent. After 60 minutes the luminescence signal was read on a PHERAStar FS microplate reader (BMG Labtech).
as §1

[1] = 15 nM WEE1, 60 minutes at 26° C., banded
[2] = banded, ">N" = at least in this band but could be higher
[3] = 15 nM PKMYT1 kinase domain, 500 µM ATP, 60 minutes at 26° C., banded
[4] = PKMYT1 kinase domain 15 nM, banded values

T1 sequence (P30291 whole entry): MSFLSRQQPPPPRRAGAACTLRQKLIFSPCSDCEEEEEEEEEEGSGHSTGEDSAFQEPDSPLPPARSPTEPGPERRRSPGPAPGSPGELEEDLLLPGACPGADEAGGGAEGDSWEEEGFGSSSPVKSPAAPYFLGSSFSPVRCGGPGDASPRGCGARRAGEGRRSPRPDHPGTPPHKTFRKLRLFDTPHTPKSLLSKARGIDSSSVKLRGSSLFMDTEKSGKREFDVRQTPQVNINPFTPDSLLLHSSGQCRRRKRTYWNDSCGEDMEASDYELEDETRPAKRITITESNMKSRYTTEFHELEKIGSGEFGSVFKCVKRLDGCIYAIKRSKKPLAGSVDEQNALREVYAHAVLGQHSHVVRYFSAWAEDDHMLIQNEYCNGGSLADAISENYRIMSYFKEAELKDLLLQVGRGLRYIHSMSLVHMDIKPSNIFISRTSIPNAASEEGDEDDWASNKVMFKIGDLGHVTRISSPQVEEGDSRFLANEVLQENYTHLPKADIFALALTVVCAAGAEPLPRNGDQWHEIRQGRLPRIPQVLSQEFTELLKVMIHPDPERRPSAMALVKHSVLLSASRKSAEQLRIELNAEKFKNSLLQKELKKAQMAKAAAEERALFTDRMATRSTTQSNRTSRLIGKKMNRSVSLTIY

SMILES: Cc1ccc(O)c(C)c1NC(=O)c1cnc(Nc2ccn(CC(=O)N3CCNCC3)n2)s1 [BAA-222, N-(3-hydroxy-2,6-dimethylphenyl)-2-((1-(2-oxo-2-(piperazin-1-yl)ethyl)-1H-pyrazol-3-yl)amino)thiazole-5-carboxamide]
- IC50 (WEE1; [1]): > 11000 nM
- PKMYT1 vs. WEE1 selectivity (WEE1; [2]): X (100-<1000 fold)
- IC50 (Human PKMYT1; [3]): < 50 nM

SMILES: Cc1cn(-c2cncn2C)nc1Nc1ncc(C(=O)Nc2c(C)ccc(O)c2C)s1 [BAA-387, N-(3-hydroxy-2,6-dimethylphenyl)-2-((4-methyl-1-(1-methyl-1H-imidazol-5-yl)-1H-pyrazol-3-yl)amino)thiazole-5-carboxamide]
- IC50 (WEE1; [1]): 1000 to 11000 nM
- PKMYT1 vs. WEE1 selectivity (WEE1; [2]): X (100-<1000 fold)
- IC50 (Human PKMYT1; [3]): < 50 nM

SMILES: Cc1ccc(O)c(C)c1NC(=O)c1cnc(Nc2ncc[nH]2)s1 [BAA-030, N-(3-hydroxy-2,6-dimethyl-phenyl)-2-(1H-imidazol-2-ylamino)thiazole-5-carboxamide]
- IC50 (WEE1; [1]): > 11000 nM
- PKMYT1 vs. WEE1 selectivity (WEE1; [2]): >W (10-<100 fold)
- IC50 (Human PKMYT1; [3]): 1000 to 11000 nM

SMILES: Cc1ccc(O)c(C)c1NC(=O)c1cnc(Nc2cccc(S(=O)(=O)C(F)(F)F)c2)s1 [BAA-284, N-(3-hydroxy-2,6-dimethylphenyl)-2-((3-((trifluoromethyl)sulfonyl)phenyl)amino) thiazole-5-carboxamide]
- IC50 (WEE1; [1]): > 11000 nM
- PKMYT1 vs. WEE1 selectivity (WEE1; [2]): W (10-<100 fold)
- IC50 (Human PKMYT1; [3]): 1000 to 11000 nM

SMILES: Cc1ccc(O)c(C)c1NC(=O)c1cnc(Nc2nncs2)s1 [BAA-028, N-(3-hydroxy-2,6-dimethyl-phenyl)-2-(1,3,4-thiadiazol-2-ylamino)thiazole-5-carboxamide]
- IC50 (WEE1; [1]): > 11000 nM
- PKMYT1 vs. WEE1 selectivity (WEE1; [2]): X (100-<1000 fold)
- IC50 (Human PKMYT1; [3]): < 50 nM

SMILES: Cc1cn(-c2cncc(C(F)(F)F)c2)nc1Nc1ncc(C(=O)Nc2c(C)ccc(O)c2C)s1 [BAA-380, N-(3-hydroxy-2,6-dimethylphenyl)-2-((4-methyl-1-(5-(trifluoromethyl)pyridin-3-yl)-1H-pyrazol-3-yl)amino)thiazole-5-carboxamide]
- IC50 (WEE1; [1]): 1000 to 11000 nM
- PKMYT1 vs. WEE1 selectivity (WEE1; [2]): W (10-<100 fold)
- IC50 (Human PKMYT1; [3]): 50 to 1000 nM

SMILES: Cc1ccc(O)c(C)c1NC(=O)c1cnc(Nc2nccn2C)s1 [BAA-552, N-(3-hydroxy-2,6-dimethylphenyl)-2-((1-methyl-1H-imidazol-2-yl)amino)thiazole-5-carboxamide]
- IC50 (WEE1; WEE1 15 nM, banded values): > 11000 nM
- PKMYT1 vs. WEE1 selectivity (WEE1; banded): X (100-<1000 fold)
- IC50 (Human PKMYT1; [4]): 50 to 1000 nM

SMILES: Cc1ccc(O)c(C)c1NC(=O)c1cnc(Nc2ccn(CC(=O)N3CCN(C4CCCC4)CC3)n2)s1 [BAA-186]
- IC50 (WEE1; [1]): > 11000 nM
- PKMYT1 vs. WEE1 selectivity (WEE1; [2]): Y (1000-5000 fold)
- IC50 (Human PKMYT1; [3]): < 50 nM

SMILES: CCN(CC)C(=O)Cn1cc(C)c(Nc2ncc(C(=O)Nc3c(C)cc(Br)c(O)c3C)s2)n1 [BAA-608, N-(4-bromo-3-hydroxy-2,6-dimethylphenyl)-2-((1-(2-(diethylamino)-2-oxoethyl)-4-methyl-1H-pyrazol-3-yl)amino)thiazole-5-carboxamide]
- IC50 (WEE1; WEE1 15 nM, banded values): > 11000 nM
- PKMYT1 vs. WEE1 selectivity (WEE1; banded): X (100-<1000 fold)
- IC50 (Human PKMYT1; [4]): 50 to 1000 nM

SMILES: Cn1ccc(Nc2ncc(C(=O)Nc3c(F)ccc(O)c3F)s2)n1 [BAA-249, N-(2,6-difluoro-3-hydroxyphenyl)-2-((1-methyl-1H-pyrazol-3-yl)amino)thiazole-5-carboxamide]
- IC50 (WEE1; [1]): > 11000 nM
- PKMYT1 vs. WEE1 selectivity (WEE1; [2]): X (100-<1000 fold)
- IC50 (Human PKMYT1; [3]): 50 to 1000 nM

SMILES: COCCNc1ncc(C(=O)Nc2c(C)ccc(O)c2C)s1 [BAA-063, N-(3-hydroxy-2,6-dimethyl-phenyl)-2-(2-methoxyethylamino)thiazole-5-carboxamide]
- IC50 (WEE1; [1]): > 11000 nM
- PKMYT1 vs. WEE1 selectivity (WEE1; [2]): >W (10-<100 fold)
- IC50 (Human PKMYT1; [3]): 1000 to 11000 nM

SMILES: Cc1ccc(O)c(C)c1NC(=O)c1cnc(Nc2ccn([C@@H]3CCN(C(=O)Cc4cccnc4)C3)n2)s1 [BAA-102]
- IC50 (WEE1; [1]): > 11000 nM
- PKMYT1 vs. WEE1 selectivity (WEE1; [2]): >Y (1000-5000 fold)
- IC50 (Human PKMYT1; [3]): 50 to 1000 nM

SMILES: CCC(C(=O)N(C)C)n1ccc(Nc2ncc(C(=O)Nc3c(C)ccc(O)c3C)s2)n1 (stereo not drawn) [BAA-507, 2-((1-(1-(dimethylamino)-1-oxobutan-2-yl)-1H-pyrazol-3-yl)amino)-N-(3-hydroxy-2,6-dimethylphenyl)thiazole-5-carboxamide]
- IC50 (WEE1; WEE1 15 nM, banded values): > 11000 nM
- PKMYT1 vs. WEE1 selectivity (WEE1; banded): X (100-<1000 fold)
- IC50 (Human PKMYT1; [4]): < 50 nM

SMILES: Cc1ccc(O)c(C)c1NC(=O)c1cnc(Nc2cc(C(C)(C)O)n(C)n2)s1 [BAA-256, N-(3-hydroxy-2,6-dimethylphenyl)-2-((5-(2-hydroxypropan-2-yl)-1-methyl-1H-pyrazol-3-yl)amino)thiazole-5-carboxamide]
- IC50 (WEE1; [1]): 1000 to 11000 nM
- PKMYT1 vs. WEE1 selectivity (WEE1; [2]): W (10-<100 fold)
- IC50 (Human PKMYT1; [3]): < 50 nM

SMILES: COc1ccccc1CNc1ncc(C(=O)Nc2c(C)ccc(O)c2C)s1 [BAA-355, N-(3-hydroxy-2,6-dimethylphenyl)-2-((2-methoxybenzyl)amino) thiazole-5-carboxamide]
- IC50 (WEE1; [1]): > 11000 nM
- PKMYT1 vs. WEE1 selectivity (WEE1; [2]): X (100-<1000 fold)
- IC50 (Human PKMYT1; [3]): 50 to 1000 nM

SMILES: CCC(=O)N1CCC(CNc2ncc(C(=O)Nc3c(C)ccc(O)c3C)s2)CC1 [BAA-077, N-(3-hydroxy-2,6-dimethyl-phenyl)-2-[(1-propanoyl-4-piperidyl)methylamino]thiazole-5-carboxamide]
- IC50 (WEE1; [1]): > 11000 nM
- PKMYT1 vs. WEE1 selectivity (WEE1; [2]): >X (100-<1000 fold)
- IC50 (Human PKMYT1; [3]): 50 to 1000 nM

SMILES: Cc1c(O)ccc(Br)c1NC(=O)c1cnc(Nc2ccn(C)n2)s1 [BAA-498, N-(6-bromo-3-hydroxy-2-methylphenyl)-2-((1-methyl-1H-pyrazol-3-yl)amino)thiazole-5-carboxamide]
- IC50 (WEE1; WEE1 15 nM, banded values): 1000 to 11000 nM
- PKMYT1 vs. WEE1 selectivity (WEE1; banded): W (10-<100 fold)
- IC50 (Human PKMYT1; [4]): 50 to 1000 nM

SMILES: Cc1ccc(O)c(C)c1NC(=O)c1cnc(Nc2ccn(CC(=O)NC[C@@H](C)O)n2)s1 [BAA-170, N-(3-hydroxy-2,6-dimethyl-phenyl)-2-[[1-[2-[[(2R)-2-hydroxypropyl]amino]-2-oxo-ethyl]pyrazol-3-yl]amino]thiazole-5-carboxamide]
- IC50 (WEE1; [1]): > 11000 nM
- PKMYT1 vs. WEE1 selectivity (WEE1; [2]): Y (1000-5000 fold)
- IC50 (Human PKMYT1; [3]): < 50 nM

SMILES: Cc1ccc(O)c(C)c1NC(=O)c1cnc(Nc2cc(Br)n(C)n2)s1 [BAA-494, 2-((5-Bromo-1-methyl-1H-pyrazol-3-yl)amino)-N-(3-hydroxy-2,6-dimethylphenyl)thiazole-5-carboxamide]
- IC50 (WEE1; WEE1 15 nM, banded values): > 11000 nM
- PKMYT1 vs. WEE1 selectivity (WEE1; banded): X (100-<1000 fold)
- IC50 (Human PKMYT1; [4]): 50 to 1000 nM

SMILES: O=C(Nc1c(Cl)ccc(O)c1F)c1cnc(Nc2ccn(CC(=O)N3CCCC3)n2)s1 [BAA-481, N-(6-Chloro-2-fluoro-3-hydroxy-phenyl)-2-[[1-(2-oxo-2-pyrrolidin-1-yl-ethyl)pyrazol-3-yl]amino]thiazole-5-carboxamide]
- IC50 (WEE1; WEE1 15 nM, banded values): > 11000 nM
- PKMYT1 vs. WEE1 selectivity (WEE1; banded): Y (1000-5000 fold)
- IC50 (Human PKMYT1; [4]): < 50 nM

SMILES: Cc1ccc(O)c(C)c1NC(=O)c1cnc(NCc2nccs2)s1 [BAA-358, N-(3-hydroxy-2,6-dimethylphenyl)-2-((thiazol-2-ylmethyl)amino)thiazole-5-carboxamide]
- IC50 (WEE1; [1]): > 11000 nM
- PKMYT1 vs. WEE1 selectivity (WEE1; [2]): X (100-<1000 fold)
- IC50 (Human PKMYT1; [3]): 50 to 1000 nM
